Data on 1 molecule can be found in publication PMC6707612, “Cyclic-di-GMP binds to histidine kinase RavS to control RavS-RavR phosphotransfer and regulates the bacterial lifestyle transition between virulence and swimming” (PLoS Pathogens, 2019).

This experiment has as its target T1, RavS^ΔN (Xanthomonas campestris pv. campestris, UniProt Q8P9A6).
T1 sequence (Q8P9A6 352-697): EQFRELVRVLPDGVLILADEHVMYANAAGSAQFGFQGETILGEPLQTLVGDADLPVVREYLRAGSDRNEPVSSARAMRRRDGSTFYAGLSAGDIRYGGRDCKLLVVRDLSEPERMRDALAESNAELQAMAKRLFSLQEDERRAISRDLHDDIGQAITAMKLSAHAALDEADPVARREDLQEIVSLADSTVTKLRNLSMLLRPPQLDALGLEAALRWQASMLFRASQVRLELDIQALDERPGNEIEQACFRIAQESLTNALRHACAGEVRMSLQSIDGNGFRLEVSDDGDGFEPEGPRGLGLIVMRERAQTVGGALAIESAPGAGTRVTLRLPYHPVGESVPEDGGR
The experiment can be described thus: in vitro RavS-RavR phosphotransfer assay (RavS~P level by autoradiography). In kind it is biochemical. As to the method:
(a) c-di-GMP enhances RavS-RavR phosphotransfer in vitro. A total of 5 μM RavS^ΔN was autophosphorylated for 15 min by the addition of 10 μCi [γ-^32P]ATP. A total of 15 μM RavR^ΔEAL or RavR^ΔEAL(D496A) was added and incubated for 30 min at 25°C. A total of 100 μM c-di-GMP was added if necessary. The reactions were terminated with 5× SDS loading buffer before autoradiography. The experiment was repeated three times. (b) Time course analyses of the impact of c-di-GMP on the velocity of RavS-RavR phosphotransfer. The autophosphorylation and phosphotransfer reactions were set as mentioned in (a). Various concentrations of c-di-GMP were added to the reactions and isotopic signals (band intensities) of RavS~P were measured after autoradiography. (c–d) c-di-GMP triggered an increase in RavS-RavR phosphotransfer in a dose-dependent manner. (c) Various concentrations of c-di-GMP (0, 5, 10, 15, 30, 50, 75 and 100 μM) were added to the RavS-RavR phosphotransfer reactions. (d) The phosphorylated level of RavS^ΔN~P was quantified by ImageJ and the EC50 value was estimated by Origin 8.5 software. In (b) and (d), the intensity of each data point is the average from three experimental repeats. (e) c-di-GMP triggered increase in RavS-RavR phosphotransfer is highly specific. […] (f) RavS specifically interacts with fl-c-di-GMP. The interaction between RavS^ΔTrM and various nucleotides, including fl-c-di-GMP, fl-cGMP and fl-c-di-AMP, were measured by microscale thermophoresis (MST). A total of 20 nM fluorescein-labelled nucleotides and increasing concentrations of proteins were incubated and measured by MST. The dissociation constant (Kd) was quantified to estimate the binding affinity. Each experiment was repeated three times.
An in vitro autophosphorylation assay was conducted as described in our previous study. Purified protein was incubated with 10 μM ATP containing 10 μCi [γ-^32P]ATP (PerkinElmer, USA) in the reaction buffer (50 mM Tris-HCl, pH 7.8, 25 mM NaCl, 25 mM KCl, 5 mM MgCl2, 2 mM DTT) for the indicated time at 28°C. If necessary, c-di-GMP was added to the mixture at the same time as ATP. For the phosphoryl transfer assay, purified RR protein or its derivative was added into the reaction mixture containing the phosphorylated HK. The autophosphorylation or phosphoryl transfer reaction was terminated by adding 5× SDS-PAGE loading buffer. Phosphorylated proteins were separated by 12% SDS-PAGE. After electrophoresis, gels were exposed to a phosphor screen (GE Healthcare) and the autoradiographic signals were detected by a Typhoon FLA7000 (GE Healthcare).

Values joined by “and” are separate entries in the source; they are usually repeats but may differ in a detail not shown here. Equal values may be shown once.

For the molecule `Nc1nc2c(ncn2[C@@H]2O[C@@H]3COP(=O)(O)O[C@H]4[C@@H](O)[C@H](n5cnc6c(=O)[nH]c(N)nc65)O[C@@H]4COP(=O)(O)O[C@H]3[C@H]2O)c(=O)[nH]1` [c-di-GMP, Cyclic di-GMP], the EC50 (5 μM RavS^ΔN, 15 μM RavR^ΔEAL, 30 min at 25°C, RavS^ΔN~P level quantified by ImageJ, read-out: median effect concentration (EC50) on RavS-RavR phosphotransfer) was 15.6 µM and ~15.6 µM. Moreover, the “T50: time that signal intensity of RavS~P decreased to half of the initiation stage” value (15 μM c-di-GMP present, without c-di-GMP 38.2 min) stood at 16.9 min.
